Test results: patent US20060040991A1, “Pharmaceutical presentation form for oral administration of a poorly soluble active compound, process for its preparation and kit” (Baxter International Inc., priority 2004, published 2006)

Columns and labels:
[1] = Solubility of indibulin in solvents; format: physicochemical
[2] = Bioavailability on peroral administration in customary presentation forms; format: in vivo
[3] = test system: tubulin; conditions: cited from earlier work

O=C(Nc1ccncc1)C(=O)c1cn(Cc2ccc(Cl)cc2)c2ccccc12 [indibulin, N-(pyridin-4-yl)-[1-(4-chlorobenzyl)indol-3-yl]-glyoxylamide]
solubility in various organic solvents ([1]; dimethylformamide, dimethyl sulfoxide and N-methylpyrrolidone): Adequate solubility | solubility in highly concentrated organic acids ([1]; greater than 50% by weight, e.g. acetic acid or lactic acid): relatively good solvents | solubility in hydrophilic solvents ([1]; water, methanol, ethanol and isopropanol): virtually insoluble | bioavailability ([2]; micronized active compound processed to oral presentation forms (suspensions, capsules or tablets)): comparatively low | bioavailability ([2]; perorally in customary presentation forms, e.g. powder, granule, tablet or capsule): low | in vitro and in vivo activity as a tubulin inhibitor [3]: significant
